From patent US20160348148A1, “MICROWELL PLATE FOR HIGH-THROUGHPUT DETECTION AND APPLICATION THEREOF” (SHANGHAI JIAOTONG UNIVERSITY, priority 2013, published 2016) come the findings set out here.

For one test, the target named is T1, hDDC (Homo sapiens, UniProt P20711).
T1 construct: made in house
T1 sequence (P20711 1-480): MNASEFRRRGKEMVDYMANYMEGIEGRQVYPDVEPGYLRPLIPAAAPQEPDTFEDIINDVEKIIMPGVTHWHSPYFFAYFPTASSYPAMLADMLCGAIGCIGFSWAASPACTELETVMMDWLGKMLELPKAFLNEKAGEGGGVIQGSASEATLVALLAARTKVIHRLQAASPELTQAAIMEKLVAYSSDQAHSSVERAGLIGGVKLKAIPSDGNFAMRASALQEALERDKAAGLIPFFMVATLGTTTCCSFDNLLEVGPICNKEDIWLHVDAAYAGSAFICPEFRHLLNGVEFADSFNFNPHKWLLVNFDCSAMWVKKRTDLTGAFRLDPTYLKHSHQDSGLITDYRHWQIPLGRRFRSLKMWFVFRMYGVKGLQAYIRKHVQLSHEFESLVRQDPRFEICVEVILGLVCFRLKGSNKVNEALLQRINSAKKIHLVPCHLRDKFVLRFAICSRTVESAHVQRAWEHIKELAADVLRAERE
The test can be described thus: IC50 to hDDC (specificity test, coupled enzyme assay). Format: biochemical. As to the method: By referring to the experiment method in Assay Drug Dev Technol. […] Smithson, IC50 of the 9 compounds to hDDC was determined.

The target in the next test is T2, hCBS (Homo sapiens, UniProt P35520).
T2 construct: made in house
T2 sequence (P35520 1-551): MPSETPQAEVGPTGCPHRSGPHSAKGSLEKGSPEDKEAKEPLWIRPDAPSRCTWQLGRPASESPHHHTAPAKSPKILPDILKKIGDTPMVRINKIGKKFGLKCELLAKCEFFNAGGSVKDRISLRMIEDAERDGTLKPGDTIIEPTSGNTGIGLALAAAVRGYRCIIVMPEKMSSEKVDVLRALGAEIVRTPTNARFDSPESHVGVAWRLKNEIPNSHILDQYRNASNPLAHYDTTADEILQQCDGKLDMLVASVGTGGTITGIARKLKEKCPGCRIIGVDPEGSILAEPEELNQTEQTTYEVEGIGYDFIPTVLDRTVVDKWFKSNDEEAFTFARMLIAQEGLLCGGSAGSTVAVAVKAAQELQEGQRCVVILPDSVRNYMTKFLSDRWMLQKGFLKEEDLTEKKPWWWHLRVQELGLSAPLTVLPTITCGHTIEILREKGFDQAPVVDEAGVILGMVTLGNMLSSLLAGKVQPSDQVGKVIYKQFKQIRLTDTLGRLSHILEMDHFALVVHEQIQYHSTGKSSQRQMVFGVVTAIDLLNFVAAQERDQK
Nature of the test: High-throughput screening of hCBS enzymatic reaction inhibitors (H2S detection with DTNB in microwell plate). The format is biochemical.

The mark [1] stands for this setting: 100 nM hCBS, 4 mM L-Cys, 4 mM D,L-HCys, pH 8.6, 60 min at 37° C., read-out: IC50 to hCBS.

Like-named read-outs stand apart in the source and are kept apart here.

`CCCCCCCCCCCCCCCC[N+](C)(C)CCN(Cc1ccc(OC)cc1)c1ncccn1` [Compound 2]: the IC50 (usually the concentration needed to halve the response being measured) was 16 µM on hDDC (read-out: IC50 to hDDC) and 8 µM at hCBS (setting [1]).
For the molecule `CCN(CC)c1ccc(C(=C2C=CC(=[N+](CC)CC)C=C2)c2ccc(N(CC)CC)cc2)cc1` [Compound 3], the concentration for half-maximal inhibition (IC50) at hDDC (read-out: IC50 to hDDC) was found to be 25 µM; on hCBS (setting [1]) it was 15 µM.
As for `CC1CCN(C2=C(Cl)C(=O)c3ccccc3C2=O)CC1` [Compound 5], the half-inhibitory concentration (IC50) worked out at 300 µM on hDDC (read-out: IC50 to hDDC) and 20 µM on hCBS (setting [1]).
With `COc1ccc2c(NCCCCCCNc3c4ccccc4nc4cc(OC)ccc34)c3ccccc3nc2c1` [Compound 6], the IC50 on hDDC (read-out: IC50 to hDDC) stood at 110 µM; at hCBS (setting [1]), 30 µM.
In the case of `N=C(N)NCCCS(=O)(=O)Nc1ccc(Nc2c3ccccc3nc3cc([N+](=O)[O-])ccc23)cc1` [Compound 7], the IC50 at hDDC (read-out: IC50 to hDDC) is 60 µM; at hCBS (setting [1]), 40 µM.
For `C/C1=C2/[N]([Co][OH])[C@H]([C@H](CC(N)=O)[C@@]2(C)CCC(=O)NC[C@@H](C)OP(=O)(O)OC2[C@@H](CO)O[C@H](n3cnc4cc(C)c(C)cc43)[C@H]2O)[C@]2(C)N=C(/C(C)=C3N=C(/C=C4N=C1[C@@H](CCC(N)=O)C\4(C)C)[C@@H](CCC(N)=O)[C@]\3(C)CC(N)=O)[C@@H](CCC(N)=O)[C@]2(C)CC(N)=O` (stereo partly shown) [Compound 8, Hydroxocobalamin, reference compound], the concentration for half-maximal inhibition (IC50) on hDDC was 150 µM; against hCBS it was 35 µM.
Consider `Cn1ncnc2c(=O)n(C)c(=O)nc1-2` [Compound 9], for which the half-inhibitory concentration (IC50) at hCBS (setting [1]) was determined as 12 µM.
